What was measured:
[1] = tested on: arrowleaf sida (Sida rhombifolia); assay: Test F pre-/postemergence: arrowleaf sida; format: in vivo
How it was run: (§1)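 Preemergence treatment of seeds sown in silt loam soil, and postemergence treatment of plants 2–18 cm tall (1- to 4-leaf stage), with compounds in non-phytotoxic solvent plus surfactant. Greenhouse 14–21 days, then visual rating versus controls on 0–100 scale (100 = complete control).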

[2] = tested on: Barnyardgrass; assay: Test C preemergence: barnyardgrass; format: in vivo, Echinochloa crus-galli
From the text: Seeds of plant species selected from blackgrass (Alopecurus myosuroides), bromegrass, downy (downy bromegrass, Bromus tectorum), foxtail, green (green foxtail, Setaria viridis), ryegrass, Italian (Italian ryegrass, Lolium multiflorum), winter wheat (Triticum aestivum), wild oat (Avena fatua), galium (catchweed bedstraw, Galium aparine), bermudagrass (Cynodon dactylon), surinam grass (Brachiaria decumbens), cocklebur (common cocklebur, Xanthium strumarium), corn (Zea mays), large crabgrass (Digitaria sanguinalis), woolly cupgrass (Eriochloa villosa), foxtail, giant (giant foxtail, Setaria faberii), goosegrass (Eleusine indica), johnsongrass (Sorghum halepense), kochia (Kochia scoparia), lambsquarters (Chenopodium album), morningglory (Ipomoea coccinea), nightshade (eastern black nightshade, Solanum ptycanthum), nutsedge, yellow (yellow nutsedge, Cyperus esculentus), pigweed (Amaranthus retroflexus), ragweed (common ragweed, Ambrosia elation), soybean (Glycine max), common (oilseed) sunflower (Helianthus annuus), Russian thistle (Salsola kali) and velvetleaf (Abutilon theophrasti) were planted into a blend of loam soil and sand and treated preemergence with test chemicals formulated in a non-phytotoxic solvent mixture which included a surfactant.
(§2) Treated plants and controls were maintained in a greenhouse for 13 to 15 days, after which time all species were compared to controls and visually evaluated. Plant response ratings, summarized in Table C, are based on a scale of 0 to 100 where 0 is no effect and 100 is complete control. A dash (-) response means no test result.

[3] = tested on: waterhemp (common waterhemp, Amaranthus rudis); assay: Test F pre-/postemergence: waterhemp; format: in vivo
How it was run: as §1

[4] = tested on: goosegrass (Eleusine indica); assay: Test F pre-/postemergence: goosegrass; format: in vivo; conditions: Preemergence
From the text: Seeds of plant species selected from corn (Zea mays), soybean (Glycine max), velvetleaf (Abutilon theophrasti), lambsquarters (Chenopodium album), poinsettia, wild (wild poinsettia, Euphorbia heterophylla), pigweed, palmer (palmer pigweed, Amaranthus palmeri), waterhemp (common waterhemp, Amaranthus rudis), surinam grass (Brachiaria decumbens), crabgrass, Brazil (Brazilian crabgrass, Digitaria horizontalis), panicum, fall (fall panicum Panicum dichotomiflorum), crabgrass, large (large crabgrass, Digitaria sanguinalis), foxtail, giant (giant foxtail, Setaria faberii), foxtail, green (green foxtail Setaria viridis), goosegrass (Eleusine indica), ragweed (common ragweed, Ambrosia elatior), barnyardgrass (Echinochloa crus-galli), sandbur (southern sandbur, Cenchrus echinatus), arrowleaf sida (Sida rhombifolia), ryegrass, Italian (Italian ryegrass, Lolium multiflorum), dayflower, VA (Virginia (VA) dayflower, Commelina virginica), field bindweed (Convolvulus arvensis), cocklebur (common cocklebur, Xanthium strumarium), morningglory (Ipomoea coccinea), nightshade (eastern black nightshade, Solanum ptycanthum), kochia (Kochia scoparia), nutsedge, yellow (yellow nutsedge, Cyperus esculentus), johnsongrass (Sorghum halepense), smartweed (ladysthumb smartweed, Polygonum persicaria), and beggarticks (hairy beggarticks, Bidens pilosa), were planted into a silt loam soil and treated preemergence with test chemicals formulated in a non-phytotoxic solvent mixture which included a surfactant. At the same time, plants selected from these crop and weed species and also pigweed (Amaranthus retroflexus), waterhemp_RES1 (ALS/Triazine resistant common waterhemp, Amaranthus rudis) and waterhemp_RES2 (ALS/HPPD resistant common waterhemp, Amaranthus rudis) were planted in pots containing a planting medium comprising spaghnum peat moss, vermiculite, wetting agent and starter nutrients treated with postemergence applications of some of the test chemicals formulated in the same manner. Plants ranged in height from 2 to 18 cm for postemergence treatments (1- to 4-leaf stage).
as §2, with “14” for “13”, “21” for “15”, “E,” for “C,”

[5] = Postemergence, 4 g ai/ha, scale 0 to 100
[6] = Postemergence, 8 g ai/ha, scale 0 to 100
[7] = Postemergence, 16 g ai/ha, scale 0 to 100
[8] = Postemergence, 31 g ai/ha, scale 0 to 100
[9] = Postemergence, 62 g ai/ha, scale 0 to 100
[10] = Preemergence, 4 g ai/ha, scale 0 to 100, 0 no effect, 100 complete control
[11] = Preemergence, 8 g ai/ha, scale 0 to 100, 0 no effect, 100 complete control
[12] = Preemergence, 16 g ai/ha, scale 0 to 100 (0 no effect, 100 complete control)
[13] = Preemergence, 31 g ai/ha, scale 0 to 100 (0 no effect, 100 complete control)

SMILES: Cc1nn(-c2ccc(C(F)(F)F)c(F)c2)nc1Cc1ccnc(C(F)(F)F)c1 [Compound 162]
- Plant response rating, Arrowleaf Sida [1, 5]: 10
- Plant response rating, Arrowleaf Sida [1, 6]: 25
- Plant response rating, Arrowleaf Sida [1, 7]: 30
- Plant response rating, Arrowleaf Sida [1, 8]: 35
- Plant response rating, Arrowleaf Sida [1, 9]: 60
- Plant response rating, Arrowleaf Sida [1, 10]: 0
- Plant response rating, Arrowleaf Sida [1, 11]: 0
- Plant response rating, Arrowleaf Sida [1, 12]: 0
- Plant response rating, Arrowleaf Sida [1, 13]: 0
- Plant response rating, Arrowleaf Sida ([1]; Preemergence, 62 g ai/ha, scale 0 to 100): 0
- Plant response rating, Barnyardgrass ([2]; 31 g ai/ha, scale of 0 to 100, 0 is no effect, 100 is complete control): 98
- Plant response rating, Barnyardgrass ([2]; 62 g ai/ha, scale of 0 to 100, 0 is no effect, 100 is complete control): 100
- Plant response rating, Barnyardgrass ([2]; 125 g ai/ha, scale 0 to 100, 0 no effect, 100 complete control): 100
- Plant response rating, Waterhemp [3, 5]: 80
- Plant response rating, Waterhemp [3, 6]: 90
- Plant response rating, Waterhemp [3, 7]: 90
- Plant response rating, Waterhemp [3, 8]: 95
- Plant response rating, Waterhemp [3, 9]: 95
- Plant response rating, Waterhemp [3, 10]: 50
- Plant response rating, Waterhemp [3, 11]: 85
- Plant response rating, Waterhemp [3, 12]: 90
- Plant response rating, Waterhemp [3, 13]: 100
- Plant response rating, Goosegrass ([4]; 4 g ai/ha, scale 0 to 100, 0 no effect, 100 complete control): 0
- Plant response rating, Goosegrass ([4]; 8 g ai/ha, scale 0 to 100, 0 no effect, 100 complete control): 0
- Plant response rating, Goosegrass ([4]; 16 g ai/ha, scale 0 to 100 (0 no effect, 100 complete control)): 95
- Plant response rating, Goosegrass ([4]; 31 g ai/ha, scale 0 to 100 (0 no effect, 100 complete control)): 100
- Plant response rating, Goosegrass ([4]; 62 g ai/ha, scale 0 to 100): 100

From patent US9302999B2, “Substituted triazoles as herbicides” (E. I. DU PONT DE NEMOURS AND COMPANY, priority 2012, dated 2016)
